The target in this experiment is T1, human renin (Homo sapiens, UniProt P00797).
T1 sequence (P00797 67-406): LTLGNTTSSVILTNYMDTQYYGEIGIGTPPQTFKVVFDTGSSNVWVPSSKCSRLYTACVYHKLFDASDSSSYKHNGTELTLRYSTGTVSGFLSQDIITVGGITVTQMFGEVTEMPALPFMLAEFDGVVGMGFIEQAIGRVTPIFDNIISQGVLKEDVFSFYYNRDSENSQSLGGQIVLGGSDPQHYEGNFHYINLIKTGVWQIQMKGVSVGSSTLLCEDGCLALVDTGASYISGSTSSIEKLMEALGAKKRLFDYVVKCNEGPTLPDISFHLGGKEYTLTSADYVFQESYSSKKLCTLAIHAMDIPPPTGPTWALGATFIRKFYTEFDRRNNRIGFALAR
Put plainly: Determination of renin IC50 by tGFP FRET assay. The experiment is classed as biochemical. The settings on record: Human recombinant renin, tandem GFP substrate 650 nM, 60 min incubation with compound, pH 7.4, 11-point curve. Summed up:
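Human recombinant renin (final 50.4 μIU) preincubated 60 min with compound (5% DMSO final) in 50 mM HEPES, 1 mM EDTA, 1% PEG 8000, 1 mM DTT, 0.1% BSA, pH 7.4, then tandem-GFP substrate added at 650 nM final. FRET fluorescence read; IC50 from 11-point curves spanning 100 μM–1 pM.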

By IC50 is commonly meant the concentration at which inhibition is half-maximal.

Each structure is given as a SMILES string.

With `COc1ccccc1COCCCOc1ccc(N2C(=O)CNC[C@@H]2COc2ccc3ccccc3c2)cc1F` [Example 39, (6R)-1-{3-fluoro-4-[3-(2-methoxybenzyloxy)-propoxy]-phenyl}-6-(naphthalen-2-yloxymethyl)-piperazin-2-one], the IC50 is 152 nM. The result for `COc1ccccc1COCCCOc1ccc(N2C(=O)CNC[C@@H]2COCc2ccccc2F)cc1` [Example 3, (6R)-6-(2-fluorobenzyloxymethyl)-1-{4-[3-(2-methoxybenzyloxy)-propoxy]-phenyl}-piperazin-2-one] reads 225 nM; that for `COc1cccc(COC[C@H]2CNCC(=O)N2c2ccc(OCCCOCc3ccccc3OC)cc2)c1` [Example 9, (6R)-6-(3-methoxybenzyloxymethyl)-1-{4-[3-(2-methoxybenzyloxy)-propoxy]-phenyl}-piperazin-2-one], 612 nM; that for `COc1ccccc1COCCCOc1ccc(N2C(=O)CNC[C@@H]2COCc2ccc(Cl)cc2)cc1` [Example 5, (6R)-6-(4-chlorobenzyloxymethyl)-1-{4-[3-(2-methoxybenzyloxy)-propoxy]-phenyl}-piperazin-2-one], 295 nM. For `COc1ccccc1COCCCOc1ccc(N2C(=O)CNC[C@@H]2COCc2ccccc2Cl)cc1` [Example 14, (6R)-6-(2-chlorobenzyloxymethyl)-1-{4-[3-(2-methoxybenzyloxy)-propoxy]-phenyl}-piperazin-2-one], the concentration for half-maximal inhibition (IC50) amounted to 223 nM. The value for `COc1ccccc1COCCCOc1ccc(N2C(=O)CNC[C@@H]2COc2ccc3c(c2)CCCN3C(C)=O)cc1` [Example 54, (6R)-6-(1-acetyl-1,2,3,4-tetrahydroquinolin-6-yloxymethyl)-1-{4-[3-(2-methoxybenzyloxy)-propoxy]-phenyl}-piperazin-2-one] was greater than 1000 nM. The result for `COc1ccccc1COCCCOc1ccc(N2C(=O)CNC[C@@H]2COc2ccc3c(ccn3CCNC(C)=O)c2)cc1` [Example 120, N-{2-[5-([2R]-1-{4-[3-(2-Methoxybenzyloxy)-propoxy]-phenyl}-6-oxopiperazin-2-ylmethoxy)-indol-1-yl]-ethyl}-acetamide] reads 4.66 nM; that for `COc1ccccc1COCCCOc1ccc(N2C(=O)CNC[C@@H]2COc2ccc3c(c2)N(Cc2cscn2)CCC3)cc1` [Example 55, (6R)-1-{4-[3-(2-methoxybenzyloxy)-propoxy]-phenyl}-6-(1-thiazol-4-ylmethyl-1,2,3,4-tetrahydroquinolin-7-yloxymethyl)-piperazin-2-one], 379 nM. The value for `COc1ccc(COC[C@H]2CNCCN2c2ccc(OCc3ccccc3)cc2)cc1` [Example 36, (2R)-1-(4-benzyloxyphenyl)-2-(4-methoxybenzyloxymethyl)-piperazine] was greater than 1000 nM. On to `COc1ccc(COC[C@H]2CNCCN2c2ccc(OCCCOCc3ccc(Cl)cc3)cc2)cc1` [Example 62, (2R)-1-{4-[3-(4-chlorobenzyloxy)-propoxy]-phenyl}-2-(4-methoxybenzyloxymethyl)-piperazine], for which the IC50 is 43700 nM. The result for `COC(=O)CN1C(=O)COc2ccc(OC[C@H]3CNCC(=O)N3c3ccc(OCCCOCc4ccccc4OC)cc3)cc21` [Example 118, [6-([2R]-1-{4-[3-(2-Methoxybenzyloxy)-propoxy]-phenyl}-6-oxo-piperazin-2-ylmethoxy)-3-oxo-2,3-dihydro-benzo[1,4]oxazin-4-yl]-acetic acid methyl ester] reads 6.83 nM. Take `COc1ccccc1COCCCOc1ccc(N2C(=O)CNC[C@@H]2COc2ccc3c(c2)N(CC(N)=O)CCC3)cc1` [Example 56, 2-[7-(1-{4-[3-(2-methoxybenzyloxy)-propoxy]-phenyl}-6-oxopiperazin-(2R)-ylmethoxy)-3,4-dihydro-2H-quinolin-1-yl]-acetamide]: the 50% inhibitory concentration (IC50) amounted to 435 nM. The value for `COc1ccc(COC[C@H]2CNCCN2c2ccc(COCCOCc3ccccc3OC)cc2)cc1` [Example 72, (2R)-1-{4-[2-(2-methoxybenzyloxy)-ethoxymethyl]-phenyl}-2-(4-methoxybenzyloxymethyl)-piperazine] was 30500 nM. The result for `COc1ccccc1COCCCOc1ccc(N2C(=O)CNC[C@@H]2COCc2ccc(Br)cc2)cc1` [Example 30, (6R)-6-(4-bromobenzyloxymethyl)-1-{4-[3-(2-methoxybenzyloxy)-propoxy]-phenyl}-piperazin-2-one] reads greater than 1000 nM.

These data come from patent publication US20040214832A1, “Piperazine derivative renin inhibitors” (priority 2003, published 2004).
